Measurements taken from ChEMBL document CHEMBL5137053 (J Med Chem, 2022).

Test: Binding affinity to NL63-CoV main protease by FRET assay
Set-up: species or system Human coronavirus NL63

**Q.** With `CC(C)(C)[C@H](NC(=O)C(F)(F)F)C(=O)N1C[C@H]2[C@@H]([C@H]1C(=O)N[C@H](C#N)C[C@@H]1CCNC1=O)C2(C)C` as the compound, how does the Ki read?
**A.** Its Ki is 226 nM.
